Experimental data published in patent US20140213647A1, “COMPOUND USEFUL FOR PREVENTING OR TREATING IRRITABLE BOWEL SYNDROME AND COMPOSITION INCLUDING SAME” (SK CHEMICALS CO., LTD., priority 2011, published 2014).

Key:
[1] = target: T1, human-derived guanylate cyclase (Homo sapiens, UniProt Q02153); experiment: Activity against guanylate cyclase (cGMP production, EIA); assay type: biochemical; settings: Sf9 lysate with human-derived guanylate cyclase, antagonistic activity vs 30 μM sodium nitroprusside, cGMP by EIA
T1 construct: made in house; host or cells: Sf9 insect cells (lysate used)
T1 sequence (Q02153 1-619): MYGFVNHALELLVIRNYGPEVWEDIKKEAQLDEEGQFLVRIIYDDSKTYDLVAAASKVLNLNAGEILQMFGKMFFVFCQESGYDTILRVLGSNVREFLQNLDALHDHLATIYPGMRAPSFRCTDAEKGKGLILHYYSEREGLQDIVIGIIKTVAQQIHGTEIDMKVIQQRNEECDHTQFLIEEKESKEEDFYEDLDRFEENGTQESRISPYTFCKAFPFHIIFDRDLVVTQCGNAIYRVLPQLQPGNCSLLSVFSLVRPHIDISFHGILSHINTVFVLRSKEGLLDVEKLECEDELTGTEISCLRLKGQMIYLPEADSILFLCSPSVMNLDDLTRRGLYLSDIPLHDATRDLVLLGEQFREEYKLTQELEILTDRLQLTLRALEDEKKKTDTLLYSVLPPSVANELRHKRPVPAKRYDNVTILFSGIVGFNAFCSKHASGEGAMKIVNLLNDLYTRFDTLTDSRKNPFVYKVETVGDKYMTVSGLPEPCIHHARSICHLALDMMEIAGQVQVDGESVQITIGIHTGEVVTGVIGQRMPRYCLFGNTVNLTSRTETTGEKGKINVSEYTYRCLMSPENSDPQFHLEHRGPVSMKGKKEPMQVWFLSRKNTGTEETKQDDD
T1 sequence (Q02108 1-690 partner): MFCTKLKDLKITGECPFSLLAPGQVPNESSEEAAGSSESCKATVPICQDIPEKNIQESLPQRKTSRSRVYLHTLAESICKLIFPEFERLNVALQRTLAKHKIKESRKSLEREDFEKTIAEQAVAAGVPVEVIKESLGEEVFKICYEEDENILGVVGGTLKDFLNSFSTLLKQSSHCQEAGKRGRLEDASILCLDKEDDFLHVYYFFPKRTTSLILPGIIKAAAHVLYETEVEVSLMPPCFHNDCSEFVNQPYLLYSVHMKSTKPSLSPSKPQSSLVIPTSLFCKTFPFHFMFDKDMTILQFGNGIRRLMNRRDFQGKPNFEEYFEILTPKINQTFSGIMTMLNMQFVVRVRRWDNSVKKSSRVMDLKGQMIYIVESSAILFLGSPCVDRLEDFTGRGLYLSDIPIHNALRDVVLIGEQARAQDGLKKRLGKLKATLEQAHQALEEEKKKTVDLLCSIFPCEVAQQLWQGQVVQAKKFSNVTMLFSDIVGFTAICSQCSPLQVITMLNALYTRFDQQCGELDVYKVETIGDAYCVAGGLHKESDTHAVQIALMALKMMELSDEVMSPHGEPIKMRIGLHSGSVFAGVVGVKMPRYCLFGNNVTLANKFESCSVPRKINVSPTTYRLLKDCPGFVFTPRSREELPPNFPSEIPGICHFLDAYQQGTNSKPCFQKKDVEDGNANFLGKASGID
Experimental: Plasmid in which a human-derived guanylate cyclase is expressed was transfected to Sf9 insect cells, followed by proliferation and then lysis. The compound (1, 10, 30, 100, 300 μM) of the present invention dissolved in DMSO and a positive control, ODQ (1H-[1,2,4]oxadiazolo[4,3-a]quinoxalin-1-one, 0.5, 0.1, 0.05, 0.01, 0.005 μM) were added to each well, to which guanylate cyclase (the lysed solution) which is mixed in a modified Tris-HCl buffer was added until its final concentration became to 0.013 μg/ml. After incubating at 37° C. for 20 minutes, 1N HCl was added to end the reaction.
After removing the guanylate cyclase, an amount of cGMP produced from the reaction was subject to quantitative measurement using an EIA kit. The amount of cGMP increases as the guanylate cyclase converting GTP to cGMP is activated. The activation of the guanylate cyclase was calculated based on the assumption that the result of sodium nitroprusside (30 μM), an agonist of the guanylate cyclase was 100%. The antagonistic activity against the guanylate cyclase was calculated based on the assumption that the result when treated only with 30 μM of sodium nitroprusside was 100% compared to when treated with both sodium nitroprusside and a drug.

[2] = tested on: visceral hypersensitivity in colitis-induced rats; experiment: Suppressing effect of visceral pain in CRD (colorectal distension) model; assay type: in vivo, Sprague-Dawley male rats; settings: CRD test about 1 hour after dosing
Experimental: To evaluate the suppressing effect of the separated (6E,12E)-3-hydroxytetradeca-6,12-dien-8,10-diyn-1-yl acetate on the visceral hypersensitivity, a Colorectal Distension (CRD) test that has been often used in the evaluation of drugs for IBS was conducted as follows (see J H. La et al., World J. Gastroenterol. Dec., 9(12): p 2791-2795, 2003).
250 to 300 g of Sprague-Dawley male rats (Charles River) were used for the CRD test. Two rats per one cage were reared in a room of 25° C., humidity 50%, and day-night 12:12 hours of cycle. Rats were freely provided with drink water and food, and were adapted to the room condition for 5 days, followed by inducing colitis. […]
A 2 cm-long rubber balloon was inserted into the rectum of each rat, and was filled with 37° C-warmed water in stages, from 0.1 to 1.0 ml. The appearing pain reactions of rats were recorded. The specific behaviors of CRD test animals were represented with AWR (abdominal withdrawal reflex), which was indirectly and quantitatively analyzed by AWR scores given on each behavior, and the AWR scores were used for identifying the abdominal pain reaction. […]
The presence of visceral hypersensitivity was checked in CRD rats 7 days after inducing colitis. […] Student's t-test (p<0.01 (**) or p<0.001 (***)) was used for statistical approach, and significance relative to the vehicle-administered group was detected. […]

[3] = target: T2, human-derived NK2 receptor (Homo sapiens, UniProt P21452); experiment: Inhibiting activity against NK2 receptor ([3H]SR-48968 competitive binding); settings: cell membranes expressing human-derived NK2 receptor, ligand [3H]SR-48968, 25° C. 90 minutes
T2 construct: expressed in transfected cells
T2 sequence (P21452 1-398): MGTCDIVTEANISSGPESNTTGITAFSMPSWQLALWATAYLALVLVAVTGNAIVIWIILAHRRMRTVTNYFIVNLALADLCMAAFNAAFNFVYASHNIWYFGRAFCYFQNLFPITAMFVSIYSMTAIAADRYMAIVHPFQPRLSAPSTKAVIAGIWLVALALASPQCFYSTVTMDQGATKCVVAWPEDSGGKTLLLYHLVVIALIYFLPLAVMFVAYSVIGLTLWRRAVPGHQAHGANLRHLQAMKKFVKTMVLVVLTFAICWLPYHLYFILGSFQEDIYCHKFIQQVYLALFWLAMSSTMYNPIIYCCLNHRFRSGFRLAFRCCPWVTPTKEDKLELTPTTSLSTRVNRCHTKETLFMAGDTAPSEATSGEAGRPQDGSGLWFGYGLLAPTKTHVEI
Experimental: Each of 100 μl of a modified HEPES buffer was added to each well, to which the compound (50, 500, 1500, 5000, 15000 μM) dissolved in DMSO and a positive control, MEN-10,376 (0.5, 2.5, 5, 25, 50 μM) were added in an amount of 5 μl, respectively. Thereto, each of 50 μl of a NK2 receptor ligand, [3H]SR-48968 was added, and each of 100 μl of a modified HEPES buffer having cell membranes in which a human-derived NK2 receptor is expressed was added. After incubating with stirring (200 rpm) at 25° C. for 90 minutes, the resultants were filtered and washed 3 times.
The number of cell membranes bound with an isotope ([^3H]SR-48968) was calculated by means of […] measurement. At this time, as a test material is strongly bound with the receptor, the ligand [^3H]SR-48968 is not bound and measured values decrease (competitive bonding). The value for the well added with only the ligand was represented as “0% inhibition”, and the well having no ligand, as “100% inhibition’, and the inhibition rate was measured depending on the amount of drug concentration.

[4] = target: T3, human-derived motilin receptor (Homo sapiens, UniProt O43193); experiment: Inhibiting activity against motilin receptor (radioligand binding); settings: cell membranes expressing human-derived motilin receptor, 25° C. 150 minutes
T3 construct: expressed in transfected cells
Experimental: Each of 100 μl of a modified Tris-HCl buffer was added to each well, to which the compound (50, 500, 1500, 5000, 15000 μM) of the present invention dissolved in DMSO and a positive control, motilin (2.5, 5, 25, 50, 250 μM) were added in an amount of 5 μl, respectively. Thereto, each of 50 μl of a motilin receptor ligand, […] was added, and each of 100 μl of a modified Tris-HCl buffer having cell membranes in which a human-derived motilin receptor is expressed was added. After incubating at 25° C. for 150 minutes, the resultants were filtered and washed 3 times. The number of cell membranes bound with an isotope was calculated by means of β-ray measurement.

[5] = target: T4, human-derived cannabinoid CB2 receptor (Homo sapiens, UniProt P34972); experiment: Inhibiting activity against cannabinoid CB2 receptor ([3H]WIN-55,212-2 binding); settings: cell membranes expressing human-derived cannabinoid CB2 receptor, ligand [3H]WIN-55,212-2, 37° C. 90 minutes
T4 construct: expressed in transfected cells
Experimental: Each of 100 μl of a modified HEPES buffer was added to each well, to which the compound (50, 500, 1500, 5000, 15000 μM) of the present invention dissolved in DMSO and a positive control, R(+)-WIN-55, 212-2 (0.05, 0.25, 0.5, 2.5, 5 nM) were added in an amount of 5 μl, respectively. Thereto, each of 50 μl of a cannabinoid CB2 receptor ligand, [^3H]WIN-55, 212-2 was added, and each of 100 μl of a modified Tris-HCl buffer having cell membranes in which a human-derived cannabinoid CB2 receptor is expressed was added. After incubating at 37° C. for 90 minutes, the resultants were filtered and washed 3 times. The number of cell membranes bound with an isotope was calculated by means of β-ray measurement.

[6] = target: T5, human-derived melanocortin MC1 receptor (Homo sapiens, UniProt Q01726); experiment: Inhibiting activity against melanocortin MC1 receptor ([125I]NDP-a-MSH binding); settings: cell membranes expressing human-derived melanocortin MC1 receptor, ligand [125I]NDP-a-MSH, 37° C. 120 minutes
T5 construct: expressed in transfected cells
Experimental: Each of 100 μl of a modified HEPES-KOH buffer was added to each well, to which the compound (50, 500, 1500, 5000, 15000 μM) of the present invention dissolved in DMSO and a positive control, NDP-a-MSH (0.25, 0.5, 2.5, 5, 25 nM) were added in an amount of 5 μl, respectively. Thereto, each of 50 μl of a melanocortin MC1 receptor ligand, [^125l] NDP-a-MSH was added, and each of 100 μl of a modified Tris-HCl buffer having cell membranes in which a human-derived melanocortin MC1 receptor is expressed was added. After incubating at 37° C. for 120 minutes, the resultants were filtered and washed 3 times. The number of cell membranes bound with an isotope was calculated by means of β-ray measurement.

T4 sequence (P34972 whole entry): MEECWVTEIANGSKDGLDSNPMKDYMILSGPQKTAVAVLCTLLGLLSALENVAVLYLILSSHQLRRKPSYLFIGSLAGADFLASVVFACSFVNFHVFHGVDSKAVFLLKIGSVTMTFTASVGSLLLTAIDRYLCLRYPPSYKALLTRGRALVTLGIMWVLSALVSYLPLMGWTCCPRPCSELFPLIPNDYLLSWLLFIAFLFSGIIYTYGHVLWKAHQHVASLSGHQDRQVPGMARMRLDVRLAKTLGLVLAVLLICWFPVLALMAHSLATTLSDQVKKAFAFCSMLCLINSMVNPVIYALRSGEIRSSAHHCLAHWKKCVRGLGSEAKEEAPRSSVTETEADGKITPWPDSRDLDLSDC
T3 sequence (O43193 whole entry): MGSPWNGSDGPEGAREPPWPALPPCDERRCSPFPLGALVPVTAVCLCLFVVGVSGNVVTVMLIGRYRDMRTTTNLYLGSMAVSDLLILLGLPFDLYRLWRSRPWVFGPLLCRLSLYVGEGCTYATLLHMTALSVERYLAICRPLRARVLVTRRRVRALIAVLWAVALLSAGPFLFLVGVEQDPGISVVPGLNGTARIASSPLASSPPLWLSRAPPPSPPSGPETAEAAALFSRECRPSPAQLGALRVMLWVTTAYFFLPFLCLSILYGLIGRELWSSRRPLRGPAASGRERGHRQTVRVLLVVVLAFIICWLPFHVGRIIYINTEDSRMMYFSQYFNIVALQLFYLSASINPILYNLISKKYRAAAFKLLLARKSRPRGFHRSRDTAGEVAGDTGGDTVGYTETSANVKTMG
T5 sequence (Q01726 whole entry): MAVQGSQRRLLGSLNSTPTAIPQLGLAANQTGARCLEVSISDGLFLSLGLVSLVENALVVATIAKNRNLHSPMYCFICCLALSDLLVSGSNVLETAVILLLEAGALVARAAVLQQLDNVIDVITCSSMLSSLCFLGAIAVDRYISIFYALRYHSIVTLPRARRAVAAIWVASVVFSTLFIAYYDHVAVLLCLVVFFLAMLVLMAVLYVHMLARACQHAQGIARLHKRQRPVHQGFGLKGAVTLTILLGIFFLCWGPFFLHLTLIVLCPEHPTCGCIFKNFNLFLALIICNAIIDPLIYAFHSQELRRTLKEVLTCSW

C/C=C/C#CC#C/C=C/CCC(O)CCOC(C)=O (stereo not shown) [(6E,12E)-3-hydroxytetradeca-6,12-dien-8,10-diyn-1-yl acetate]
IC50 [1]: 18.9 µM | suppressing effect against visceral hypersensitivity relative to the vehicle group (AWR score / AUC, FIG. 2) ([2]; 100 mg/kg orally, Student's t-test): significant suppressing effect against visceral hypersensitivity | suppressing effect against visceral pain (AWR score / AUC, FIG. 2) ([2]; 10, 30 and 100 mg/kg orally): suppressing effect against visceral pain occurred in visceral hypersensitivity as its concentration increased | IC50 [3]: 30.6 µM | IC50 [4]: 29.1 µM | IC50 [5]: 45 µM | IC50 [6]: 133 µM
